Data reported in paper PMC5936713, “Structural and functional studies of Spr1654: an essential aminotransferase in teichoic acid biosynthesis in Streptococcus pneumoniae” (Open Biology, 2018).
One block for each compound: values may come before it.

Assays:
Spr1654 [1] = target: T1, Spr1654 (Streptococcus pneumoniae, UniProt A0A0H2URM1); experiment: X-ray crystal structure, […] Å; format: binding; conditions: PMP formed by adding L-glutamate to the PLP complex before crystallization; active site
T1 construct: gene SP_1837; full-length, C-terminal His6 tag (pET-23b), expressed in E. coli T7 Express; homodimer; residues Tyr4-Thr404 seen in crystals

[2] = target: Spr1654 aminotransferase from Streptococcus pneumoniae, full length with C-terminal poly-histidine (Streptococcus pneumoniae) (UniProt Q8DNL6); experiment: SEC; Superdex200 Increase 10/300 GL gel filtration, 20 mM Tris-HCl pH 7.5, 200 mM NaCl, 4°C; oligomeric state from the elution profile
Spr1654 [3] = target: T1, Spr1654; experiment: X-ray crystal structure, […] Å; absorption spectroscopy ([…] nm); format: binding; conditions: covalent; internal aldimine with Lys199; 1 mM PLP preincubated, pH 7.5
Spr1654 [4] = target: T1, Spr1654; experiment: transamination half-reaction, PLP ([…] nm) to PMP ([…] nm) absorbance; format: biochemical; conditions: 0.5 mM L-glutamate, Spr1654/PLP 0.9 mg/ml, 50 mM MES pH 6.6, 200 mM NaCl, 25 °C; amino donor

Compound: Cc1ncc(COP(=O)(O)O)c(CN)c1O [PMP]
X-ray crystal structure, 2.4 Å (Spr1654 [1]): In the crystal structure of the Spr1654/PMP complex, the phosphate group serves as the main anchor

stoichiometry N [2]: 2
Compound: Spr1654 aminotransferase from Streptococcus pneumoniae, full length with C-terminal poly-histidine (from UniProt Q8DNL6 1-417) (enzyme)

Compound: Cc1ncc(COP(=O)(O)O)c(C=O)c1O [PLP]
X-ray crystal structure, 2.2 Å; absorption spectroscopy (420 nm) (Spr1654 [3]): Clear electron density confirms the formation of a covalent bond between PLP and residue Lys199

Compound: N[C@@H](CCC(=O)O)C(=O)O [E, L-glutamate]
transamination half-reaction, PLP (420 nm) to PMP (330 nm) absorbance (Spr1654 [4]): Spr1654 is able to deaminate L-glutamate in the first half-reaction of transamination with high efficiency
